“Also recorded” adds a separate entry of the source. Residues, ends and D or L forms follow the SMILES beside them. *: point of attachment. Cbz = O=C(OCc1ccccc1)*
Key:
[1] = system: NCI-H929; assay: Cell cycle analysis by PI staining and FACS, NCI-H929; assay type: cell-based, human; details: NCI-H929, 10 μM, within 48 h of culture
Method: Cell cycle analysis of control (DMSO-treated) or MAL3-101-treated NCI-H929 (2×10^5) was assessed by PI staining and FACS analysis of samples. Resulting DNA distributions were analyzed for the proportions of cells in G0/G1 and G2/M phases of the cell cycle after subtractive gating of cell doublets and debris as described in G. Anderson, M. Gries, N. Kurihara, T. Honjo, J. Anderson, V. Donnenberg, A. Donnenberg, I. Ghobrial, M. Y. Mapara, D. Stirling, D. Roodman, S. Lentzsch, Thalidomide derivative CC-4047 inhibits osteoclast formation by down-regulation of PU. 1, Blood 107 (2006) 3098-3105, which is incorporated herein by reference.

[2] = system: NCI-H929; assay: Western immunoblotting of caspase-3 and PARP cleavage, NCI-H929; assay type: cell-based, human; details: NCI-H929, 10 μM, time course
Method: Whole-cell lysates were prepared using the Mammalian Cell Lysis Kit (Sigma-Aldrich) and analyzed by Western blot analysis as described in the Zhang reference, cited supra, which is incorporated herein by reference. Equal amounts of protein were separated by SDS-PAGE and electrotransferred onto a nylon membrane. Primary antibodies to detect caspase-3 (Cell Signaling Technology, Danvers, Mass.), poly (ADP-ribose) polymerase (PARP; Abcam, Cambridge, Mass.), and β-actin (Sigma Aldrich) were used along with a HP-conjugated goat-anti-mouse polyclonal secondary antibody (BD Biosciences, Franklin Lakes, N.J.). Enhanced chemiluminescence (ECL) substrate (Pierce Biotechnology, Rockford, Ill.) was used for antibody detection.

[3] = system: EPCs from multiple myeloma patients; assay: MTS survival assay, endothelial progenitor cells (EPCs) from MM patients; assay type: cell-based, human; details: FIG. 36C
Method: (§1) For endothelial progenitor cells (EPC) outgrowth, bone marrow were further separated using Ficoll-Hypaque (Sigma Chemicals, St Louis, Mo.) density-gradient centrifugation and mononuclear cells were cultured (7×10^6 cells/well) in laminin-coated, 6-well plates (Becton Dickinson Labware, Bedford, Mass.) in EndoCult Basal Medium supplemented with 20% fetal bovine serum (StemCell Technologies, Vancouver, Canada) and antibiotics (100 U/ml penicillin G, 100 μg/ml streptomycin) until confluent. […] Outgrown EPCs were identified by the expression of endothelial and progenitor cell surface markers, including von Willebrand factor (a blood glycoprotein involved in coagulation), vascular endothelial-cadherin (where cadherins are a class of transmembrane proteins), vascular endothelial growth factor receptor-2, CD34, and CD133, as well as the absence of the MM marker CD38, determined by immunocytochemistry and flow cytometry. EPCs were passaged when they were 60-70% confluent by trypsin-ethylenediaminetetraacetic acid (EDTA) treatment (Invitrogen, Carlsbad, Calif.) onto 96-well culture plates (BD Biosciences, San Jose, Calif.). […]

[4] = system: normal control BM, PBMC, and EPC populations; assay: MTS survival assay, normal control cells; assay type: cell-based; details: FIG. 36D
Method: MAL3-101 (the structure is shown as the final product in FIG. 12, in FIG. 13, and in FIG. 25B), the proteasome inhibitor MG-132 (A.G. Scientific, San Diego, Calif.) and the Hsp90 inhibitor 17-allylamino-17-demethoxygeldanamycin (17-AAG) (Calbiochem/EMD Biosciences, San Diego, Calif.) were dissolved in dimethylsulfoxide (DMSO; Sigma-Aldrich, St. Louis, Mo.), and stored at −20° C. Final concentration of DMSO was 0.03% and this was used to treat control cells. The MM cell lines examined were NCI-H929, RPMI-8226, and U266 (ATCC, Manassas, Va.). Normal peripheral blood mononuclear cells (PBMC) and bone marrow (BM) cells were obtained from StemCell Technologies (Vancouver, Canada). Primary MM cells and EPCs were from BM aspirates of newly-diagnosed patients following informed consent. MM cells were enriched to >95% CD138^+ cells by positive selection, using anti-CD138 MACS Microbeads according to the manufacturer's instructions (Miltenyi, San Diego, Calif.). […]

[5] = system: U266; assay: Growth inhibition of MM cell line U266; assay type: cell-based, human; details: U266 compared to NCI-H929
Method: (§2) Viability was estimated according to the following formula: […]
(§3) Control cells were cultured in DMSO.

[6] = system: RPMI-8226; assay: Growth inhibition of MM cell line RPMI-8226; assay type: cell-based, human; details: RPMI-8226 compared to NCI-H929
Method: as §2, §3

[7] = MTS survival assay, endothelial progenitor cells (EPCs) from MM patients; assay type: cell-based, human; details: human, EPCs of MM patients, FIG. 36C, read-out: reduction of viability of EPCs
Method: as §1

Question: With CCCCCCN(C(=O)CCCCCN1C(=O)NC(c2ccc(-c3ccccc3)cc2)C(C(=O)OCc2ccccc2)=C1C)C(C(=O)NCCCC)c1ccc(OCC(=O)OC)c(C(=O)OC)c1 (centres unmarked) [MAL3-101] as the compound, how does the “decrease in cells in the G2/M phase” value [1] read?
Answer: 2.5 fold

Question: What about the “increase in the sub-G0/G1 phase” value [1] of the same compound?
Answer: ~3 fold

Question: What about the “cleavage of caspase-3 and PARP” value [2] of the same compound?
Answer: time-dependent increase in the cleavage of caspase-3 and PARP

Question: What about the “reduction of viability of EPCs” value [3] of the same compound?
Answer: 10±14%

Question: What about the “cytotoxicity in normal control cells” value [4] of the same compound?
Answer: lack of cytotoxicity; also recorded: lack of sensitivity

Question: What about the “sensitivity to MAL3-101-induced growth inhibition” value [5] of the same compound?
Answer: less sensitive

Question: And the “sensitivity to MAL3-101-induced growth inhibition” value [6]?
Answer: less sensitive

Question: With CC(C)C[C@@H](C=O)NC(=O)[C@H](CC(C)C)NC(=O)[C@H](CC(C)C)NC(=O)OCc1ccccc1 [MG-132, reference compound] (Cbz-Leu-Leu-Leu-aldehyde) as the compound, how does the cytotoxicity [7] read?
Answer: 16 ± 17%
